Reference: patent US20150064107A1, “IMAGING AGENT” (King's College London, priority 2013, published 2015)
“Also recorded” adds a separate entry of the source.

Columns and labels:
[1] = In vivo PET/MRI imaging of the lymph node system after footpad injection; parameters: species or system mouse (C57BL/6); details: mouse, 6 hours post injection
Description: In vivo PET/MRI imaging of the lymph node (LN) system was carried out using a preclinical nanoScan® PET•MRI scanner with 1 T magnetic field (Mediso Ltd, H-1047, Budapest, Hungary), utilising ^18F-labelled CoxFe3-xO4@NaYF4(Yb, Er)-BP-PEG (10 K) or ^18F-labelled Fe3O4@NaYF4(Yb, Tm)-BP-PEG (2 K) NPIAs as probes. After injection of 20 μL of [^18F]-fluoride-labelled CoxFe3-xO4@NaYF4(Yb, Er)-BP-PEG solution containing 6.3 MBq radioactivity and 20 μg Fe into the rear right foot pad of a mouse (C57BL/6, female, 6-7 weeks old, 20 g), coregistered PET and MRI images were recorded 6 hours post injection. The most prominent signal was from the popliteal LN, which is the nearest draining LN from the injection point, and the next most prominent signal was from the medial iliac LN (FIG. 5a, 5c & 5d).
To further explore the potential value of these NPIAs, a more detailed lymph node study by PET/MRI imaging was undertaken, investigating the popliteal LN in response to an acute inflammatory stimulus in the foot. A solution of ^18F-labelled Fe3O4@NaYF4(Yb, Tm)-BP-PEG (20 μL, 4.5 MBq, 20 μg Fe) was injected into each of the two rear footpads of a female C57BL/6 mouse in which only the right leg was inflamed. […] A control experiment was carried out with [^18F]-fluoride but without NPs Fe3O4@NaYF4(Yb, Tm)-BP-PEG, under the same conditions. […]

[2] = Ex vivo fluorescent imaging of excised popliteal lymph nodes under 980 nm laser; format: in vivo, mouse (C57BL/6); details: multi-photon laser scanning microscope
Description: To further explore the potential value of these NPIAs, a more detailed lymph node study by PET/MRI imaging was undertaken, investigating the popliteal LN in response to an acute inflammatory stimulus in the foot. A solution of ^18F-labelled Fe3O4@NaYF4(Yb, Tm)-BP-PEG (20 μL, 4.5 MBq, 20 μg Fe) was injected into each of the two rear footpads of a female C57BL/6 mouse in which only the right leg was inflamed. […] A control experiment was carried out with [^18F]-fluoride but without NPs Fe3O4@NaYF4(Yb, Tm)-BP-PEG, under the same conditions. […] By MRI scanning prior to injection of the labellend NPs, no contrast difference was seen on MR images between the normal LN and the inflamed one. The popliteal lymph nodes on the inflamed side were dissected and viewed, together with the adjacent fatty tissue, with a Femtonics (Budapest, Hungary) Fem2D in vivo multi-photon laser scanning microscope under excitation of a 980 nm laser. […] Fluorescent NPIAs were also found inside cells of adjacent fat tissue of the inflamed popliteal LN.

## [^18F]-fluoride
[1]
  lymph node signal on PET (and MRI) images: no contrast in lymph nodes; also recorded: did not show any signal at the lymph nodes
[2]
  fluorescence of excised inflamed popliteal lymph node: faint granular fluorescence
